Data from publication PMC11249646, “Small-Molecule Disruptors of the Interaction between Calcium- and Integrin-Binding Protein 1 and Integrin αIIbβ3 as Novel Antiplatelet Agents” (ACS Pharmacology & Translational Science, 2024).
pIC50: −log10 of the molar value. Like-named read-outs stand apart in the source and are kept apart here.

Experiments:
[1] = molecular target: T1, CIB1 and αIIb interaction (CIB1-GST : F-αIIb peptide) (Homo sapiens, UniProt Q99828); assay: FP assay, 1536-well qHTS format (primary and confirmatory screen); type: binding; details: for CONFIRMATORY SCREEN Curve Class / Curve Class (confirmatory screen): qHTS curve class; for Efficacy (%) / pIC50 / Curve Class: Table S2; for pIC50: read-out: IC50; for IC50: read-out: IC50 [μM] (confirmatory screen)
T1 construct: made in house; host or cells: BL-21 plus RIL cells (E. coli)
T1 sequence (Q99828 1-191): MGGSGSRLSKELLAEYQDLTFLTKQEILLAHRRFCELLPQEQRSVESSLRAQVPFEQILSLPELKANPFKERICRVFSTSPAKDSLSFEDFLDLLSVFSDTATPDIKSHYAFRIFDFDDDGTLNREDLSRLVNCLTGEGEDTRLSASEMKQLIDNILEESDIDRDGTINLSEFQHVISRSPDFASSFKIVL

[2] = molecular target: T2, GST-CIB1 : F-scrambled peptide (Homo sapiens, UniProt Q99828); assay: FP scrambled-peptide counter screen, 1536-well format; type: binding; details: for COUNTERSCREEN Curve Class / Curve Class (counterscreen): qHTS curve class; for IC50: read-out: IC50 [μM] (counterscreen)
T2 construct: made in house; host or cells: BL-21 plus RIL cells (E. coli)
T2 sequence (Q99828 1-191): T1 sequence (Q99828 1-191)

[3] = qHTS FP screen hits, negative = inhibition
[4] = Table S3, confirmatory screen, a negative sign marks inhibitory curves
[5] = Table S3, confirmatory screen, negative = inhibition
[6] = qHTS FP screen hits, one class per curve where COUNT > 1, negative sign = inhibitory curve
[7] = Table S3, counterscreen, a negative sign marks inhibitory curves
[8] = Table S3, counterscreen, negative = inhibition
[9] = Table S3, counterscreen, YES/NO call
[10] = qHTS primary screen hits, negative = inhibition
[11] = qHTS primary screen hits, negative sign = inhibitory curve, several classes where COUNT > 1
[12] = confirmatory screen, negative sign = inhibitory curve
[13] = scrambled-peptide counterscreen
[14] = qHTS primary screen hits, negative sign = inhibitory curve
[15] = Table S3, confirmatory screen, YES/NO call

Structure (SMILES) | Efficacy (%) [1, 3] | pIC50 ([1]; qHTS FP screen hits) | Curve Class (confirmatory screen) [1, 4] | Efficacy (%) (confirmatory screen) [1, 5] | Curve Class [1, 6] | Curve Class (counterscreen) [2, 7] | Efficacy (%) (counterscreen) [2, 8] | IC50 ([2]; Table S3, counterscreen) | Efficacy (%) [1, 10] | pIC50 ([1]; qHTS primary screen hits) | also measured
O=C(O)C(F)(F)F.O=C1CCCC2=C1C1(CCOCC1)N=C(Nc1nc3ccccc3o1)N2 [NCGC00188584-01] | -26% | 4.80 | – | – | – | – | – | – | – | – | CONFIRMATORY SCREEN Efficacy (%) ([1]; confirmatory screen): 0%; CONFIRMATORY SCREEN Curve Class ([1]; confirmatory screen): 4; COUNTERSCREEN Efficacy (%) ([2]; counterscreen): -16%; COUNTERSCREEN Curve Class ([2]; counterscreen): 4
O=C(O)c1ccccc1SC1=NS(=O)(=O)c2ccccc21 [NCGC00188636-02] | -66% | 4.35 | 4 | -29% | -2.2 | 4 | 0% | – | – | – | –
O=C(O)C(F)(F)F.Oc1cccc2cc(N3CCCC3)cnc12 [NCGC00188744-01] | -48% | 4.55 | 4 | -14% | -2.2 | -1.4 | -34% | 17.8 µM | – | – | Confirm? (counterscreen) [2, 9]: YES
CN(C)c1cnc2c(O)cccc2c1.O=C(O)C(F)(F)F [NCGC00188745-01] | – | – | – | – | – | – | – | – | -53% | 4.35 | CONFIRMATORY SCREEN Efficacy (%) ([1]; confirmatory screen): -19%; CONFIRMATORY SCREEN Curve Class ([1]; confirmatory screen): 4; Curve Class [1, 11]: -2.2; COUNTERSCREEN Efficacy (%) ([2]; counterscreen): -32%; COUNTERSCREEN Curve Class ([2]; counterscreen): 4
O=C(O)C(F)(F)F.Oc1cccc2cc(C3CC3)cnc12 [NCGC00188747-01] | -36% | 4.50 | 4 | -17% | -1.2 | 4 | -25% | – | – | – | –
O=C(O)C(F)(F)F.O=C1CCCC2=C1C(c1ccncc1)N=C(Nc1nc3ccccc3o1)N2 (stereo not shown) [NCGC00188839-01] | – | – | 4 | -25% | – | 4 | -13% | – | -44% | 4.55 | Curve Class [1, 11]: -2.2
O=C(O)C(F)(F)F.O=C1CCCC2=C1C(c1ncccc1C(F)(F)F)N=C(Nc1nc3ccccc3o1)N2 (stereo not shown) [NCGC00189070-01] | – | – | 4 | -19% | – | -2.4 | -41% | 28.2 µM | -47% | 4.40 | Curve Class [1, 11]: -2.2; Confirm? (counterscreen) [2, 9]: YES
CN(C)[C@H]1CCN(c2cccc(Nc3nn4c(=O)c5ccccc5nc4s3)c2)C1.O=C(O)C(F)(F)F [NCGC00189222-02] | – | – | – | – | – | – | – | – | -39% | 4.48 | CONFIRMATORY SCREEN Confirm? ([1]; confirmatory screen, YES/NO call): YES; CONFIRMATORY SCREEN Curve Class [1, 12]: -2.4; CONFIRMATORY SCREEN Efficacy (%) ([1]; confirmatory screen, negative = inhibition): -54%; COUNTERSCREEN Efficacy (%) [2, 13]: -79%; COUNTERSCREEN Confirm? ([2]; scrambled-peptide counterscreen, YES/NO call): YES; COUNTERSCREEN Curve Class [2, 13]: -2.2; pIC50 ([2]; scrambled-peptide counterscreen, read-out: COUNTERSCREEN IC50): 4.25
Cc1ccc(CNc2ncnc3ccc(-c4ccc([C@@H](C)O)o4)cc23)o1 [NCGC00189251-01] | – | – | – | – | – | – | – | – | – | – | Efficacy (%) (confirmatory screen) ([1]; confirmatory screen): -58%; Confirm? (confirmatory screen) ([1]; confirmatory screen, YES/NO): YES; Curve Class (confirmatory screen) [1, 12]: -1.2; IC50 ([1]; confirmatory screen): 28.2 µM; Efficacy (%) (counterscreen) ([2]; counterscreen): -36%; Curve Class (counterscreen) ([2]; counterscreen, negative sign = inhibitory curve): -2.2; IC50 ([2]; counterscreen): 39.8 µM
O=C(O)C(F)(F)F.O=C1CCCC2=C1C(c1cccnc1Br)N=C(Nc1nc3ccccc3o1)N2 (stereo not shown) [NCGC00189281-01] | – | – | – | – | – | – | – | – | -26% | 4.60 | CONFIRMATORY SCREEN Efficacy (%) ([1]; confirmatory screen): -31%; CONFIRMATORY SCREEN Curve Class ([1]; confirmatory screen): 4; Curve Class [1, 14]: -2.4; COUNTERSCREEN Efficacy (%) ([2]; counterscreen): 0%; COUNTERSCREEN Curve Class ([2]; counterscreen): 4
Cc1ccsc1C1N=C(Nc2nc3ccccc3o2)NC2=C1C(=O)CCC2.O=C(O)C(F)(F)F (stereo not shown) [NCGC00189283-01] | -28% | 5.10 | 4 | -22% | – | -2.4 | -34% | 63.1 µM | – | – | Confirm? (counterscreen) [2, 9]: YES
COC(=O)c1ccc(O)c2ncc(-c3ccc(C(=O)N4CCNCC4)cc3)cc12.O=C(O)C(F)(F)F [NCGC00189509-01] | – | – | – | – | – | – | – | – | -45% | 4.55 | CONFIRMATORY SCREEN Efficacy (%) ([1]; confirmatory screen): -16%; CONFIRMATORY SCREEN Curve Class ([1]; confirmatory screen): 4; Curve Class [1, 11]: -1.2; COUNTERSCREEN Efficacy (%) ([2]; counterscreen): -25%; COUNTERSCREEN Curve Class ([2]; counterscreen): 4
COC(=O)c1ccc(O)c2ncc(-c3ccc(C(=O)NCCCN(C)C)cc3)cc12.O=C(O)C(F)(F)F [NCGC00189510-01] | -71% | 4.35 | 4 | -26% | -2.2 | 3 | 226% | 89.1 µM | – | – | –
O=C(O)C(F)(F)F.O=C1Nc2ccccc2/C1=N/NC(=S)Nc1ccc(Oc2ccccc2)cc1 [NCGC00229524-01] | – | – | -1.4 | -29% | – | -1.4 | -38% | 4 µM | -25% | 5.55 | Confirm? (confirmatory screen) [1, 15]: YES; IC50 ([1]; Table S3, confirmatory screen): 12.6 µM; Curve Class [1, 14]: -1.4
O=C(O)C(F)(F)F.O=C1Nc2ccccc2/C1=N/NC(=S)Nc1ccc(O)cc1 [NCGC00229525-01] | -42% | 5.05 | -1.4 | -32% | -1.2 | -1.2 | -61% | 6.3 µM | – | – | Confirm? (confirmatory screen) [1, 15]: YES; IC50 ([1]; Table S3, confirmatory screen): 11.2 µM
